IC50 data for 19 compounds are collected here from US12466820B2, “Amino quinazoline derivatives as P2X3 inhibitors” (CHIESI FARMACEUTICI S.p.A., priority 2019, dated 2025).

Some results are limits rather than exact numbers.

The target in one experiment is T1, h P2X3 (Homo sapiens, UniProt P56373).
T1 sequence (P56373 1-397): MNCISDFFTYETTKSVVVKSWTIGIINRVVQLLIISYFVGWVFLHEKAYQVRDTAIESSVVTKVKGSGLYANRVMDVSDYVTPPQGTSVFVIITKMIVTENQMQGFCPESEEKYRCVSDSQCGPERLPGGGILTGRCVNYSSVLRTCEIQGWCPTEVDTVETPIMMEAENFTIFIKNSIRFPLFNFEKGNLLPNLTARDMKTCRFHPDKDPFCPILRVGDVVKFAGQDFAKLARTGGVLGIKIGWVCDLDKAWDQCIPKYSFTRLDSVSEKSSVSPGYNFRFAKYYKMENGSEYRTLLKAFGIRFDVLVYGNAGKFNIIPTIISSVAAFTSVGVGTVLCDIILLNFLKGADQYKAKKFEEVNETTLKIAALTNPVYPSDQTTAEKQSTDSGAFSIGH
Put plainly: In vitro electrophysiology assay for P2X3 (automated whole-cell patch clamp, Sophion Qube). It counts as cell-based. The conditions noted are these: range of activity. The gist of the method:
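Whole-cell automated patch clamp at room temperature, cells held at −60 mV; after two 800 nM α,β-MeATP baseline responses, antagonist preincubated 10 min then co-applied with 800 nM α,β-MeATP. Inhibition of peak current vs second agonist response; IC50 from 10-concentration curves, one concentration per cell.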
(In general: Patch clamp records ionic current or voltage across a cell membrane.)

In a further experiment the target is T2, h P2X2/3 (Homo sapiens, UniProt P56373+Q9UBL9).
T2 sequence (P56373 1-397): T1 sequence (P56373 1-397)
T2 sequence (Q9UBL9 1-471): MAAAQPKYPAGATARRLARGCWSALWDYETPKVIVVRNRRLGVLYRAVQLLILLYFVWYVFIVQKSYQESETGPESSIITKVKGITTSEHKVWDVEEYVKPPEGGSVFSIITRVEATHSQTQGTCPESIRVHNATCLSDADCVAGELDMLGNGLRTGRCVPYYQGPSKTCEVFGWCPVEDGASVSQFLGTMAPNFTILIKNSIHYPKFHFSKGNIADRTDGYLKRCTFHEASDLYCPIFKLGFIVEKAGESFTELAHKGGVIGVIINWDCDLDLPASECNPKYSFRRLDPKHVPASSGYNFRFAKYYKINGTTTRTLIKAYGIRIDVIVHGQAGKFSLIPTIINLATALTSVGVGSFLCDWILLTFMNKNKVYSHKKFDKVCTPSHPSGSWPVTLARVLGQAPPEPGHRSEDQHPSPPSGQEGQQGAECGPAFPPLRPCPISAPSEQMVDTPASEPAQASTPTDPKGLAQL
Put plainly: In vitro electrophysiology assay for P2X2/3 (same protocol, 10 μM ATP as agonist). It counts as cell-based. The conditions noted are these: Table 7, range of activity. On the procedure: Cells expressing P2X3 receptors were grown according to standard practice and maintained at 37° C. in a 5% humidified CO2 atmosphere. The cells were seeded into T175 flask 2 days prior to the day of the assay and dissociated from the flasks using TrypLE when grown to confluence of 80-90%. The dissociated cells were resuspended in serum free media at a cell density of 3×10^6 cells/ml and loaded onto the Sophion Qube automated patch-clamp system. The extracellular assay buffer contained 145 mM NaCl, 4 mM KCl, 2 mM CaCl2), 1 mM MgCl2, 10 mM HEPES, and 10 mM glucose at pH 7.4. The intracellular assay solution contained 140 mM CsF, 10 mM NaCl, 10 mM EGTA, 10 mM HEPES at pH 7.2. Agonist stock solutions were prepared in H2O and diluted in bath solution prior to use. All antagonists were prepared as 10 mM stock solutions in DMSO and diluted in bath solution prior to use. All experiments were performed under the whole-cell patch clamp configuration at room temperature with 384 individual cells being voltage clamped at −60 mV simultaneously on the Sophion Qube instrument. Two baseline responses were established with the application of α,β-MeATP (800 nM), with the subsequent agonist applications being washed out using extracellular assay buffer containing 0.5 U/ml apyrase. Following the second agonist application, antagonist was incubated in the absence of α,β-MeATP for 10 minutes. After antagonist preincubation, 800 nM α,β-MeATP and antagonist were co-administered to determine the inhibitory effect of the antagonist. One concentration of an antagonist was assessed against a single cell, with different concentrations of the antagonist applied to other cells on the 384 recording substrate. The control P2X3 current amplitude was taken from the peak current amplitude from the second agonist response prior to preincubation with antagonist. The peak P2X3 current amplitude in the presence of antagonist was used to calculate the inhibitory effect at each concentration of the antagonist according to the following equation: […]
Concentration-response curves were constructed from ten different concentrations with each concentration of antagonist tested on at least two individual cells. The concentration of the antagonist to inhibit P2X3 current by 50% (IC50) was determined by fitting the data with the following equation: […]
Where ‘a’ is minimum response, ‘b’ is maximum response, ‘c’ is IC50 and ‘d’ is Hill slope.
Representative compound of the present invention have been also tested for P2X2/3 receptor.
The same assay protocol was used for the P2X2/3 assay as the P2X3 assay with two modifications: 1) 10 μM ATP was used as the agonist; and 2) the mean current amplitude was measured seven seconds after the application of agonist.

Where [1] appears, read: Table 6, inhibition of P2X3 current, agonist α,β-MeATP (800 nM).

By IC50 is commonly meant the concentration needed to halve the response being measured. A lower IC50 goes with higher potency. `COc1cc(-c2ncc(C)s2)cc2c(NC(C)c3noc(C)n3)ncnc12` (centres unmarked) [Example 107, 8-methoxy-N-(1-(5-methyl-1,2,4-oxadiazol-3-yl)ethyl)-6-(5-methylthiazol-2-yl)quinazolin-4-amine]: the results for the 50% inhibitory concentration (IC50) on h P2X3 (setting [1]), against h P2X3 (Table 7) and at h P2X2/3 were below 316 nM, below 316 nM and 316 to 3160 nM, respectively.

Turning to `COc1cc(-c2ccc(C)cn2)cc2c(NC(C)c3nc(C)no3)ncnc12` (single isomer, unassigned) [Example 163, 8-Methoxy-N-[1-(3-methyl-1,2,4-oxadiazol-5-yl)ethyl]-6-(5-methyl-2-pyridyl)quinazolin-4-amine], the half-inhibitory concentration (IC50) at h P2X3 (setting [1]) was below 316 nM; at h P2X3 (Table 7), below 316 nM; at h P2X2/3 it was 3160 to 31600 nM.

With `COc1cc(-c2ncc(C)cn2)cc2c(NCc3ccc(C(F)(F)F)nc3)ncnc12` [Example 155], the 50% inhibitory concentration (IC50) is below 316 nM on h P2X3 (setting [1]), below 316 nM against h P2X3 (Table 7) and 316 to 3160 nM on h P2X2/3.

On to `CNS(=O)(=O)c1cc(-c2ccc(F)cc2)cc2c(N[C@H](C)c3ccc(C)nn3)ncnc12` [Example 19, (R)-6-(4-fluorophenyl)-N-methyl-4-((1-(6-methylpyridazin-3-yl)ethyl)amino)quinazoline-8-sulfonamide], for which the IC50 at h P2X2/3 was 316 to 3160 nM.

As to `COc1cc(-c2ccc(F)cn2)cc2c(NCc3ccc(C(F)(F)F)nc3)ncnc12` [Example 150, 6-(5-fluoropyridin-2-yl)-8-methoxy-N-((6-(trifluoromethyl)pyridin-3-yl)methyl)quinazolin-4-amineamine], the figures for the half-inhibitory concentration (IC50) on h P2X3 (setting [1]), on h P2X3 (Table 7) and on h P2X2/3 were below 316 nM, below 316 nM and 3160 to 31600 nM, respectively.

`COc1cc(-c2ncc(C)s2)cc2c(NCc3ccc(Cl)cn3)ncnc12` [Example 117, N-((5-chloropyridin-2-yl)methyl)-8-methoxy-6-(5-methylthiazol-2-yl)quinazolin-4-amine]: the concentration for half-maximal inhibition (IC50) was below 316 nM on h P2X3 (setting [1]), below 316 nM on h P2X3 (Table 7) and 316 to 3160 nM at h P2X2/3.

Consider `COc1cc(-c2ncc(F)cn2)cc2c(NC(C)c3nnc(C)s3)ncnc12` (centres unmarked) [Example 109, 6-(5-fluoropyrimidin-2-yl)-8-methoxy-N-(1-(5-methyl-1,3,4-thiadiazol-2-yl)ethyl)quinazolin-4-amine], for which the IC50 at h P2X3 (setting [1]) lay in the range of 316 to 3160 nM; against h P2X3 (Table 7), 316 to 3160 nM; at h P2X2/3, 3160 to 31600 nM.

With `COc1cc(-c2ccc(F)cn2)cc2c(NC(C)c3nc(C)no3)ncnc12` (single isomer, unassigned) [Example 176, 6-(5-fluoropyridin-2-yl)-8-methoxy-N-(1-(3-methyl-1,2,4-oxadiazol-5-yl)ethyl)quinazolin-4-amine], the results for the IC50 at h P2X3 (setting [1]), against h P2X3 (Table 7) and on h P2X2/3 were below 316 nM, below 316 nM and 3160 to 31600 nM, respectively.

As for `COc1cc(-c2ncc(C)cn2)cc2c(NCc3ccc(C)nc3)ncnc12` [Example 154, 8-methoxy-N-((6-methylpyridin-3-yl)methyl)-6-(5-methylpyrimidin-2-yl)quinazolin-4-amine], the 50% inhibitory concentration (IC50) was below 316 nM on h P2X3 (setting [1]), below 316 nM against h P2X3 (Table 7) and 316 to 3160 nM on h P2X2/3.

With `COc1cc(-c2ncc(C)s2)cc2c(NCc3cc(C)no3)ncnc12` [Example 111, 8-methoxy-N-[(3-methylisoxazol-5-yl)methyl]-6-(5-methylthiazol-2-yl)quinazolin-4-amine], the IC50 at h P2X3 (setting [1]) was below 316 nM; against h P2X3 (Table 7) it was below 316 nM; on h P2X2/3, 316 to 3160 nM.

`COc1cc(-c2ncc(F)cn2)cc2c(NC(C)c3noc(C)n3)ncnc12` (centres unmarked) [Example 108, 6-(5-fluoropyrimidin-2-yl)-8-methoxy-N-(1-(5-methyl-1,2,4-oxadiazol-3-yl)ethyl)quinazolin-4-amine]: the IC50 at h P2X3 (setting [1]) is 316 to 3160 nM; against h P2X3 (Table 7), 316 to 3160 nM; at h P2X2/3, 3160 to 31600 nM.

With `Cc1cnc(-c2cc(OC3CCOCC3)c3ncnc(NC(C)c4ccc(C)nn4)c3c2)nc1` (single isomer, unassigned) [Example 28, N-[1-(6-methylpyridazin-3-yl)ethyl]-6-(5-methylpyrimidin-2-yl)-8-tetrahydropyran-4-yloxy-quinazolin-4-amine], the concentration for half-maximal inhibition (IC50) on h P2X3 (setting [1]) was below 316 nM; against h P2X3 (Table 7), below 316 nM; at h P2X2/3 it was 316 to 3160 nM.

For the compound `COc1cc(-c2ncc(C)cc2F)cc2c(N[C@H](C)c3noc(C)n3)ncnc12` [Example 157, 6-(3-fluoro-5-methyl-2-pyridyl)-8-methoxy-N-[(1R)-1-(5-methyl-1,2,4-oxadiazol-3-yl)ethyl]quinazolin-4-amine], the IC50 on h P2X3 (setting [1]) is below 316 nM; against h P2X3 (Table 7) it was below 316 nM; at h P2X2/3 it was 3160 to 31600 nM.

As for `COc1cc(-c2ccc(C)cn2)cc2c(NCc3nnc(C)o3)ncnc12` [Example 143, 8-methoxy-N-[(5-methyl-1,3,4-oxadiazol-2-yl)methyl]-6-(5-methyl-2-pyridyl)quinazolin-4-amine], the concentration for half-maximal inhibition (IC50) is below 316 nM on h P2X3 (setting [1]), below 316 nM against h P2X3 (Table 7) and 3160 to 31600 nM on h P2X2/3.

Turning to `COc1cc(-c2ncc(C)s2)cc2c(NCc3nc(C(F)(F)F)no3)ncnc12` [Example 112, 8-methoxy-6-(5-methylthiazol-2-yl)-N-[[3-(trifluoromethyl)-1,2,4-oxadiazol-5-yl]methyl]quinazolin-4-amine], the 50% inhibitory concentration (IC50) is below 316 nM at h P2X3 (setting [1]), below 316 nM at h P2X3 (Table 7) and 316 to 3160 nM at h P2X2/3.

Consider `COc1cc(-c2ncc(C)cn2)cc2c(NCc3nnc(C)s3)ncnc12` [Example 153, 8-methoxy-N-((5-methyl-1,3,4-thiadiazol-2-yl)methyl)-6-(5-methylpyrimidin-2-yl)quinazolin-4-amine], for which the IC50 was below 316 nM at h P2X3 (setting [1]), below 316 nM on h P2X3 (Table 7) and 3160 to 31600 nM on h P2X2/3.

On to `COc1cc(-c2ncc(C)cn2)cc2c(NC(C)c3ccc(C(F)(F)F)nn3)ncnc12` (single isomer, unassigned) [Example 121, 8-methoxy-6-(5-methylpyrimidin-2-yl)-N-[1-[6-(trifluoromethyl)pyridazin-3-yl]ethyl]quinazolin-4-amine], for which the values for the IC50 at h P2X3 (setting [1]), at h P2X3 (Table 7) and at h P2X2/3 were 316 to 3160 nM, below 316 nM and 316 to 3160 nM, respectively.

For the compound `CNS(=O)(=O)c1cc(-c2ccc(F)cc2)cc2c(N[C@H](C)c3noc(C)n3)ncnc12` [Example 20, (R)-6-(4-fluorophenyl)-N-methyl-4-((1-(5-methyl-1,2,4-oxadiazol-3-yl)ethyl)amino)quinazoline-8-sulfonamide], the 50% inhibitory concentration (IC50) on h P2X2/3 was 316 to 3160 nM.

Regarding `Cc1ccc(CNc2ncnc3c(OC4CCOCC4)cc(-c4ccc(F)cn4)cc23)nn1` [Example 30, 6-(5-fluoro-2-pyridyl)-N-[(6-methylpyridazin-3-yl)methyl]-8-tetrahydropyran-4-yloxy-quinazolin-4-amine], the half-maximal inhibitory concentration (IC50) is 316 to 3160 nM on h P2X3 (setting [1]), 316 to 3160 nM at h P2X3 (Table 7) and 3160 to 31600 nM on h P2X2/3.
